Results reported in patent US11559527B2 (priority 2017, dated 2023).

Key:
Type in all cases: cell-based, Human
MCF7 cells [1] = test: Mitochondrial superoxide (MitoSOX, flow cytometry); conditions: both concentrations of mDIVI-1, compared to vehicle
Excerpt: Inhibition of the mitochondrial fission impacts on other mitochondrial processes, such as mitochondrial metabolism and general and mitochondrial oxidative stress. To confirm, MCF7 cells were stained with MitoSOX and CM-H2DCFDA, and mitochondrial superoxide and total ROS were quantified by flow cytometry. […] Whereas the increase in general ROS goes in line with the increase in mitochondrial content, the boost in the levels of mitochondrial superoxide in mDIV1-treated cells is actually bigger than the observed increased mitochondrial content.
LEVELS OF REACTIVE OXYGEN SPECIES AND MITOCHONDRIAL SUPEROXIDE: For both assays, 2×10^5 MCF7 cells were seeded in 35 mm plates. […] Reactive oxygen species (ROS) production was measured using CM-H2DCFDA (C6827, Invitrogen). Briefly, cells were incubated for 20 minutes at 37° C. with 1 μM CM-H2DCFDA diluted in PBS and then placed in complete media for 20 minutes at 37° C. in the dark, to render the dye fluorescent, according to the manufacturer. Mitochondrial superoxide was measured using MitoSOX Red Mitochondrial Superoxide Indicator (M36008, ThermoFisher Scientific). […] ROS signal and MitoSOX signal was quantified as mean fluorescent intensity of the viable cell population in a Fortessa flow cytometer (BD Bioscience). Results were analysed using FlowJo software.

Wnt signaling = test: Luciferase reporter assay MCF7-GFP-TCF/LEF(luc); conditions: 50 μM, 2 and 5 days
Excerpt: Mitochondrial fusion and fission may also have an impact in signaling pathways that regulate stem cell proliferation and survival. […] A range of reporter MCF7-GFP cell lines were generated, including MCF7-GFP-GLI(luc), MCF7-GFP-Rbp/Jk(luc), MCF7-GFP-SMAD(luc) and MCF7-GFP-TCF/LEF(luc), to assess Hedgehog signaling, Notch signaling, TGFβ signaling, and Wnt signaling, respectively. […] The data is shown in the four data plots in FIG. 9.
LUCIFERASE ASSAY: The Cignal Lenti reporter assay (luc) was used to monitor the activity of several signalling pathways in MCF7-GFP cells as explained previously. Luciferase Assay System (E1501, Promega) was performed according to manufacturer's instructions. 1×10^4 MCF7 […] were seeded in black-walled 96 well plates. When cells were attached, drug treatments were added for 18, 48 hours and 5 days. After treatment, Luciferase Assay was performed according to manufacturer's instructions and light signal was acquired in the Xenogen VivoVision IVIS Lumina. Results were normalized by SRB staining of cells grown in 96-well plates in parallel.
SULFORHODAMINE B (SRB) ASSAY: SRB (S9012, Sigma) measures total biomass by staining cellular proteins. […] Absorbance was spectrophotometrically measured at 562 nm in a FluoStar Omega plate reader (BMG Labtech). […]

E-cadherin = test: Western blotting (immunoblot); conditions: MCF7 cells after mDIVI-1 treatment
Method: Breast cancer stem cells can exist in distinct states, an mesenchymal-like state and an epithelial-like state, being the first one characterized for its expression of CD24^−/CD44^+, with an mesenchymal-like gene-expression profile and primarily quiescent.
At the end of the treatment, cells in suspension were spun down and lysed and attached cells were directly lysed in RIPA lysis buffer (R0278, Sigma) containing proteinase inhibitors (05 892 970 001, Roche) and kept at 4° C. for 20 minutes with rotation. Lysates were cleared by centrifugation for 10 minutes at 10,000×g and supernatants were collected. Equal amounts of protein lysate, as determined by using the BCA protein assay kit (23225, Pierce) were diluted in SDS sample buffer and dry-boiled for 5 minutes before being separated by SDS-PAGE using 4-20% gels (456-1094, Biorad). Samples were then blotted onto nitrocellulose membranes (170-4159, Biorad), blocked in 5% milk in TBS-Tween 20 (P9416, Sigma) for 1 hour and probed with antibodies against E-cadherin (ab8995, Abcam) or β-actin (a2228, Sigma). Bound antibodies were detected using a horseradish peroxidase-conjugated secondary antibody (ab6789 and ab6721, Abcam) and signal was obtained using Supersignal West Pico chemiluminiscent substrate (34087, ThermoScientific). Pictures were taken in a ChemiDoc XRS with Image Lab Software (BioRad).

MCF7 cells [2] = test: DAPI staining (viable cells in suspension; binucleated cells)
Method: The second chart in FIG. 10B sets forth the results. […] One possible explanation to that observed behavior is that they are becoming more quiescent. […] Such phenomenon is typical of anti-mitotic drugs.
The surviving fraction after 2 days and 5 days of growth was analyzed by FACS. MCF7 cells were either trypsinised or spun down and trypsinised and incubated with CD24 (IOTest CD24-PE, Beckman Coulter) and CD44 (APC mouse anti-human CD44, 559942, BD Pharmingen) for 15 minutes on ice. Cells were then rinsed twice in PBS, spun down, and resuspended with DAPI dye (D1306, Molecular probes) at 3 μM in PBS for 10 minutes. Samples were then analyzed by FACS (Fortessa, BD Bioscence). Only the live cell population, identified using the DAPI staining, was analyzed for CD24/CD44 expression. Data were analyzed using FlowJo software.

COc1cc(-n2c(S)nc3ccccc3c2=O)c(Cl)cc1Cl [mDIVI-1, 3-(2,4-Dichloro-5-methoxyphenyl)-2-sulfanyl-4(3H)-quinazolinone]
mitochondrial superoxide production (MitoSOX) (MCF7 cells [1]): significantly increased | Wnt/TCF pathway luciferase activity (Wnt signaling): inhibition | expression of E-cadherin (E-cadherin): reduction | binucleated cells (failure of cytokinesis) (MCF7 cells [2]; 50 μM, data not shown): increase | cell viability (DAPI) vs vehicle-treated cells (MCF7 cells [2]; anchorage-independent conditions): no significant differences
